Consider one compound from patent publication US8618080B2, “Immunomodulatory compounds and treatment of diseases related to an overproduction of inflammatory cytokines” (OM Pharma, priority 2006, dated 2013).

One data set relates to murine DC cells. Nature of the data set: LPS-induced IL-12, TNF-α and IL-10 production by bone marrow derived dendritic cells. Format: cell-based, murine (C57BL/7). To be noted: murine BM-derived DC; compound 0.01-100 μg/ml 1 h 30 before LPS 1 μg/ml; 20 h; ELISA. The procedure: Femora and tibiae from two male C57BL/7, 6 week-old (Charles River Laboratories France), were removed, stripped of muscles and tendons, and desinfected with 70% ethanol. Both ends of each bone were cut and the marrow was flushed with HBSS (Gibco BRL) using a syringe with a 26-gauge needle. The resulting cell suspension was centrifuged for 5 min. at 500 g and washed in HBSS. The cells were resuspended at 3×10^5 cells/ml in RPMI-1640 (Gibco BRL) supplemented with 2 mM L-glutamin (Sigma), 100 U/ml penicillin (Sigma), 100 μg/ml streptomycin (Sigma), 50 μM β-mercaptoethanol (Sigma), 10% heat-inactivated FCS (Sigma) and 15 ng/ml murine rGM-CSF (R&D).
To generate bone marrow (BM) derived dendritic cells (DC), BM leukocytes were cultured in 100-mm bacteriological petri dishes (Falcon 1029) for 8 days at 37° C. in 5% CO2. On day 0, 10 ml of cell suspension were seeded per dish. On day 3, another 10 ml of freshly prepared medium were added to each plate and on day 6, 9 ml of top medium were carefully removed from each plate and replaced by 10 ml of fresh medium.
Non-adherent cells of the 8-day old BM cell cultures were collected, centrifuged for 5 min. at 500 g, and resuspended at 1.25×10^6 cells/ml in supplemented RPMI containing 10 ng/ml GM-CSF. The cells were then seeded in 24-well tissue culture plates ([…]) and incubated for 1 h 30 at 37° C. in 5% CO2 in the absence or presence of OM-294-DP or OM-197-MP-AC (0.01-100 μg/ml/200 μl/well). LPS (E.coli O26:B6, Sigma), was then added at 1 μg/ml, and the plates were further incubated. After 20 h incubation, the supernatants were collected for analysis of cytokines. IL-12p70, IL-10, and TNF-α concentrations in DC culture supernatants were measured by ELISA using OptEIA matched Ab pairs from BD Pharmingen. Supersignal ELISA Pico chemiluminescent peroxidase substrate (BD Pharmingen) was used for the detection by luminometry (Wallac 1420 multilabel counter Victor-2). The assays were performed according to manufacturer's instructions.
FIG. 1: IL-12 (left panels) and IL-10 (right panels) secretion by murine DC stimulated by LPS (1 μg/ml) alone, or first during 90 minutes with the indicated concentrations (in μg/ml) of OM-197-MP-AC (A) or 294-DP (B), and then by LPS (1 μg/ml) for 20 additional hours. The supernatants were collected from the DC cultures and analyzed by ELISA for the presence of IL-12 and IL-10.
FIG. 2: TNF-α secretion by murine DC stimulated by LPS (1 μg/ml) alone, or first during 90 minutes with the indicated concentrations (in μg/ml) of 294-DP (294), or of OM-197-MP-AC (197), and then by LPS (1 μg/ml) for 20 additional hours. The supernatants were collected from the DC cultures and analyzed by ELISA for the presence of TNF-α.
Background: In an ELISA, binding on a coated surface is turned into a signal by an enzyme label.

Another data set deals with human CD4+ T cells. The experiment in a line: Cytokine production and proliferation of naïve CD4+ T cells stimulated with anti-CD3 and anti-CD28. In kind it is cell-based. To be noted: 0.02-20 μg/ml. As for the experimental part:
A series of four compounds of the present invention (OM-197-MP-AC, OM-197-MC-HD, OM-294-BA-MP, OM-197-MP-HD) were tested directly as summarized below:
Naïve CD4^+ T cells were magnetically sorted from healthy blood donor (buffy coat). The cells were stimulated in the presence or not of graded doses of triacyl derivatives (0.02; 0.2; 2 and 20 μg/ml) using plate-bound anti-CD3 (5 μg/ml) and soluble anti-CD28 (1 μg/ml). After 6 days, cytokine levels (IFN-γ and IL-13) were tested in the culture supernatants using ELISA.
FIGS. 3A-3D: Effect of increasing doses of the four compounds tested (OM-197-MP-AC, n=5; OM-197-MC-HD, n=5; OM-294-BA-MP, n=7; OM-197-MP-HD, n=3) on IFN-γ and IL-13 production of human CD4^+ T cells following a polyclonal activation. Results are expressed as the median (±p25/p75) of n independent experiments and show the percentage (%) proliferation or cytokine production of treated cells versus untreated cells (considered as 100%, see dotted line). The statistical analysis was performed using a nonparametric unpaired Mann-Whitney t test (2-tailed).

Data set [1] is described as follows: Pyrogenicity in the rabbit. In kind it is in vivo, New Zealand white rabbits. The settings on record: i.v., temperature increase. As for the experimental part: 3 New Zealand white rabbits/group were injected i.v. with either OM-197-MP-AC or OM-294-DP at different doses (according to the European Pharmacopoeia 2001, Method 2.6.8).
Animals: Readout: temperature increase

`CCCCCCCCCCCC(=O)O[C@H](CCCCCCCCCCC)CC(=O)N[C@@H](CCOP(=O)(O)O)C(=O)NCCC[C@H](COC(=O)CCCCCN)NC(=O)C[C@H](O)CCCCCCCCCCC` [OM-197-MP-AC, (3S, 9R)-3-[(R)-3-dodecanoyloxytetradecanoylamino]-4-oxo-5-aza-9-[(R)-3-hydroxytetradecanoylamino]-decan-1, 10-diol 1-dihydrogenophosphate 10-(6-aminohexanoate)]: in the data set with murine DC cells, the “LPS-induced production of IL-10” value is “increase”, the “LPS-induced production of IL-12” value is recorded as “decrease” and the “LPS-induced production of TNF-α” value is “decrease”. Also, the T cell proliferation entry in the data set on human CD4+ T cells is “unaffected”. Also, in the data set on human CD4+ T cells (6 days, ELISA), the “IFN-γ production by CD4+ T cells” value is given as “unaffected” and the “IL-13 production by CD4+ T cells” value is recorded as “reduced”. The Pyrogenic threshold in data set [1] was over 0.9 mg/kg.
